The experiment concerns rat model of laser-induced choroidal neovascularization. Put plainly: Inhibitory effect on choroidal neovascularization (CNV) after subconjunctival administration, rat model of laser-induced CNV. The format is in vivo, Rats (Brown Norway). Conditions: for incidence of CNV relative to that of the base group: single subconjunctival administration, 14 days after photocoagulation, mean±S.E., P<0.01 vs base group. How it is done:
An inhibitory effect on choroidal neovascularization caused by the subconjunctival administration of FMPA was assessed using a rat model of laser-induced choroidal neovascularization (which may hereinafter be abbreviated as CNV).
Rats (Brown Norway, 8 week old, male) were given general anesthesia and their pupils were dilated with one drop of commercially available eye-drops (“Mydrin P”, trade name; product of Santen Pharmaceutical Co. Ltd.) They were then subjected to photocoagulation by a krypton laser photocoagulation apparatus (“MC-7000L”, manufactured by NIDEK Co., Ltd.). The photocoagulation was performed sporadically at 8 sites while focusing on the deep layer of the retina and avoiding laser irradiation to thick retinal blood vessels (coagulation conditions: spot size of 100μm, output of 100 mW and coagulation time for 0.1 second). This photocoagulation was given to both eyes. After photocoagulation, the sites exposed to laser were confirmed by fundus photography. These rats were bred for 14 days, whereby CNV rat models were produced. […]
Fourteen days after photocoagulation, 0.1 mL of 10 wt.% fluorescein was injected through the caudal vein and based on the photograph taken by a fluorescein fundus camera (“Pro III”, product of Kowa Company Ltd), presence or absence of CNV was observed. […] A ratio of the number of positive sites to the number of all the exposed sites (8 sites) of eyeballs was calculated and the incidence of CNV of each administration group was calculated when the CNV incidence of the base group (Group 1) was assumed to be 1.00. […]
The incidence of CNV was expressed as a mean value±S.E. Comparison between the base group (Group 1) and each FMPA group (Groups 2 and 3) was made using analysis of variance, followed by Dunnett multiple comparison tests, while comparison between the base group and Comparative medicament group (Group 4) or comparison between the FMPA group (Group 2) and Comparative medicament group was made using t-test. […]

The values below come from patent publication US20070037782A1, “Therapeutic agent for ageing macular degeneration” (MEIJI DAIRIES CORPORATION, priority 2003, published 2007).

Structures are written as SMILES.

Turning to `CC(=O)O[C@]1(C(C)=O)CC[C@H]2[C@@H]3C[C@H](C)C4=CC(=O)CC[C@]4(C)[C@@]3(F)CC[C@@]21C` [FMPA, 9α-fluoromedroxyprogesterone acetate], the “incidence of CNV relative to that of the base group” value stood at 62.2±6.7% (1000 μg/eye) and 48.9±6.5% (3000 μg/eye). Besides, the “CNV inhibitory effect (in words)” value (1000 and 3000 μg/eye, subconjunctival, rat) was “dose-dependent CNV inhibitory effect”.
